Experimental data: PMC3395220 (Journal of Medicinal Chemistry, 2012)
Read-outs that look alike come from different tables or passages of the source.

Tests used:
[1] = Tolerability during xenograft treatment; type: in vivo, athymic nu/nu mice; conditions: iv q2dx10 10 mg/Kg and q3dx10 20 mg/Kg, colon and melanoma models
[2] = test system: A549/ATCCC; type: cell-based, human; conditions: 10^Δ2-x, relative to compound 2
[3] = test system: PC-3; type: cell-based, human; conditions: 10^Δ2-x, relative to compound 2
[4] = test system: IGROV1; type: cell-based, human; conditions: 10^Δ2-x, relative to compound 2
[5] = test system: UACC-62; type: cell-based, human; conditions: 10^Δ2-x, relative to compound 2
[6] = test system: OVCAR-4; type: cell-based, human; conditions: 10^Δ2-x, relative to compound 2
[7] = test system: SNB-19; type: cell-based, human; conditions: 10^Δ2-x, relative to compound 2
[8] = test system: SK-MEL2; type: cell-based, human; conditions: 10^Δ2-x, relative to compound 2
[9] = test system: NCI-H522; type: cell-based, human; conditions: 10^Δ2-x, relative to compound 2
[10] = test system: SF-295; type: cell-based, human; conditions: 10^Δ2-x, relative to compound 2
[11] = test system: COLO 205; type: cell-based, human; conditions: 10^Δ2-x, relative to compound 2
[12] = test system: K-562; type: cell-based, human; conditions: 10^Δ2-x, relative to compound 2
[13] = test system: MDA-MB-468; type: cell-based, human; conditions: 10^Δ2-x, relative to compound 2
[14] = test system: UACC-257; type: cell-based, human; conditions: 10^Δ2-x, relative to compound 2
[15] = test system: M14; type: cell-based, human; conditions: 10^Δ2-x, relative to compound 2
[16] = test system: DU-145; type: cell-based, human; conditions: 10^Δ2-x, relative to compound 2
[17] = test system: A498; type: cell-based, human; conditions: 10^Δ2-x, relative to compound 2
[18] = test system: RPMI-8226; type: cell-based, human; conditions: 10^Δ2-x, relative to compound 2
[19] = test system: SK-MEL-2 melanoma cells; assay: Subcutaneous SK-MEL-2 melanoma xenograft; type: in vivo, athymic nu/nu mice; conditions: iv q2dx10 at 10 mg/Kg and q3dx10 at 20 mg/Kg
[20] = test system: SR; type: cell-based, human; conditions: 10^Δ2-x, relative to compound 2
[21] = test system: SF-539; type: cell-based, human; conditions: 10^Δ2-x, relative to compound 2
[22] = test system: UO-31; type: cell-based, human; conditions: 10^Δ2-x, relative to compound 2
[23] = test system: SK-MEL28; type: cell-based, human; conditions: 10^Δ2-x, relative to compound 2
[24] = test system: SK-OV-3; type: cell-based, human; conditions: 10^Δ2-x, relative to compound 2
[25] = test system: MDA-MB-231/ATCC; type: cell-based, human; conditions: 10^Δ2-x, relative to compound 2
[26] = test system: COLO-205 colon cancer cells; assay: Subcutaneous COLO-205 colon xenograft; type: in vivo, athymic nu/nu mice; conditions: iv q2dx10 at 10 mg/Kg and q3dx10 at 20 mg/Kg
[27] = test system: CCRF-CEM; type: cell-based, human; conditions: 10^Δ2-x, relative to compound 2
[28] = test system: SK-MEL-5; type: cell-based, human; conditions: 10^Δ2-x, relative to compound 2
[29] = test system: HCT-15; type: cell-based, human; conditions: 10^Δ2-x, relative to compound 2
[30] = test system: SN12C; type: cell-based, human; conditions: 10^Δ2-x, relative to compound 2
[31] = test system: OVCAR-3; type: cell-based, human; conditions: 10^Δ2-x, relative to compound 2
[32] = Assays of toxicity, maximum tolerated dose; conditions: in vivo
[33] = test system: 786-0; type: cell-based, human; conditions: 10^Δ2-x, relative to compound 2
[34] = test system: NCI/ADR-RES; assay: cells; type: cell-based, human
[35] = test system: HOP-92; type: cell-based, human; conditions: 10^Δ2-x, relative to compound 2
[36] = test system: HS578T; type: cell-based, human; conditions: 10^Δ2-x, relative to compound 2
[37] = test system: SW-620; type: cell-based, human; conditions: 10^Δ2-x, relative to compound 2
[38] = test system: EKVX; type: cell-based, human; conditions: 10^Δ2-x, relative to compound 2
[39] = test system: NCI-H460; type: cell-based, human; conditions: 10^Δ2-x, relative to compound 2
[40] = test system: T-47D; type: cell-based, human; conditions: 10^Δ2-x, relative to compound 2
[41] = test system: NCI-H23; type: cell-based, human; conditions: 10^Δ2-x, relative to compound 2
[42] = test system: BT-549; type: cell-based, human; conditions: 10^Δ2-x, relative to compound 2
[43] = test system: MOLT-4; type: cell-based, human; conditions: 10^Δ2-x, relative to compound 2
[44] = test system: TK-10; type: cell-based, human; conditions: 10^Δ2-x, relative to compound 2
[45] = test system: OVCAR-5; type: cell-based, human; conditions: 10^Δ2-x, relative to compound 2
[46] = test system: RXF 393; type: cell-based, human; conditions: 10^Δ2-x, relative to compound 2
[47] = test system: LOX IMVI; type: cell-based, human; conditions: 10^Δ2-x, relative to compound 2
[48] = test system: OVCAR-8; type: cell-based, human; conditions: 10^Δ2-x, relative to compound 2
[49] = CD-1, mouse, in vivo
[50] = test system: HL-60(TB); type: cell-based, human; conditions: 10^Δ2-x, relative to compound 2
[51] = test system: HOP-62; type: cell-based, human; conditions: 10^Δ2-x, relative to compound 2
[52] = test system: 60 cancer cell lines; assay: cells; type: cell-based, human; conditions: for GI50: Homo sapiens
[53] = Plasma pharmacokinetics; type: in vivo, CD-1 mice; conditions: mice, iv 18 mg/kg

CO[C@@H]([C@@H]1Cc2cc3cc(O[C@H]4C[C@@H](O[C@H]5C[C@@H](O)[C@H](O)[C@@H](C)O5)[C@H](O)[C@@H](C)O4)c(C)c(O)c3c(O)c2C(=O)[C@H]1O[C@H]1C[C@@H](O[C@H]2C[C@@H](O[C@H]3C[C@H](O)[C@H](O)[C@@H](C)O3)[C@H](O)[C@@H](C)O2)[C@H](O)[C@@H](C)O1)[C@@H](O)C(C)=O [Compound 9, demycarosyl-3D-β-D-digitoxosyl-mithramycin SK]
tolerability in xenograft-bearing mice [1]: well tolerated and no signs of toxicity or deaths | activity improvement factor [2]: 2.04 | activity improvement factor [3]: 4.62 | activity improvement factor [4]: 7.16 | activity improvement factor [5]: 1.02 | activity improvement factor [6]: 3.76 | activity improvement factor [7]: 1.55 | activity improvement factor [8]: 1.23 | activity improvement factor [9]: 0.79 | activity improvement factor [10]: 2.00 | activity improvement factor [11]: 2.26 | activity improvement factor [12]: 1.40 | activity improvement factor [13]: 1.48 | activity improvement factor [14]: 1.66 | activity improvement factor [15]: 2.19 | activity improvement factor [16]: 4.47 | activity improvement factor [17]: 2.24 | activity improvement factor [18]: 0.73 | growth of SK-MEL-2 human melanoma xenografts [19]: markedly delayed | activity improvement factor [20]: 1.11 | activity improvement factor [21]: 1.30 | activity improvement factor [22]: 2.40 | activity improvement factor [23]: 1.46 | activity improvement factor [24]: 3.85 | activity improvement factor [25]: 2.75 | tumor growth of COLO-205 colon xenografts [26]: reduced notably | activity improvement factor [27]: 1.14 | activity improvement factor [28]: 1.62 | activity improvement factor [29]: 1.00 | activity improvement factor [30]: 1.70 | activity improvement factor [31]: 3.51 | fold less toxicity than parental compound 1, single treatment [32]: about 32 fold | activity improvement factor [33]: 1.88 | activity improvement factor ([34]; 10^Δ2-x, relative to compound 2): 0.15 | GI50 ([34]; Homo sapiens): > 10000 nM | activity improvement factor [35]: 1.11 | activity improvement factor [36]: 1.76 | activity improvement factor [37]: 1.30 | activity improvement factor [38]: 1.60 | activity improvement factor [39]: 1.19 | activity improvement factor [40]: 1.74 | activity improvement factor [41]: 1.86 | activity improvement factor [42]: 0.94 | activity improvement factor [43]: 2.43 | activity improvement factor [44]: 2.45 | activity improvement factor [45]: 1.97 | activity improvement factor [46]: 0.86 | activity improvement factor [47]: 1.23 | activity improvement factor [48]: 1.51 | fold less toxic than compound 3 [49]: about 2 fold | activity improvement factor [50]: 2.24 | activity improvement factor [51]: 2.26 | GI50 ([52]; read-out: Mean GI50): 30 nM | GI50 ([52]; read-out: Mean log(GI50) (converted)): 30.2 nM | fold more active than 10, in average ([52]; NCI-60 GI50): about 5 fold | plasma level ([53]; after 30 min): ~1,7 μM | plasma level ([53]; after 120 min): below 0,1 μM
